Test results: PubChem BioAssay (NCI)
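1) Cells in 96-well plates. 2) Compound, 48 h, 5 concentrations. 3) Linear interpolation between surrounding doses. 4) Unreached endpoint = highest concentration. GI50 marks 50% less growth. TGI marks complete inhibition of growth.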

What was measured:
Assay in all cases: NCI tumour cell line growth inhibition, 48 h
PC-3 prostate = tested on: PC-3 prostate
CAKI-1 renal = tested on: CAKI-1 renal
SN12C renal = tested on: SN12C renal
NCI/ADR-RES ovarian = tested on: NCI/ADR-RES ovarian
SW-620 colon = tested on: SW-620 colon
RPMI-8226 leukemia = tested on: RPMI-8226 leukemia
UACC-62 melanoma = tested on: UACC-62 melanoma
CCRF-CEM leukemia = tested on: CCRF-CEM leukemia
SNB-75 CNS = tested on: SNB-75 CNS
TK-10 renal = tested on: TK-10 renal
A549 NSCLC = tested on: A549 NSCLC
SK-MEL-28 melanoma = tested on: SK-MEL-28 melanoma
MOLT-4 leukemia = tested on: MOLT-4 leukemia
T-47D breast = tested on: T-47D breast
SK-OV-3 ovarian = tested on: SK-OV-3 ovarian
786-0 renal = tested on: 786-0 renal
ACHN renal = tested on: ACHN renal
MCF7 breast = tested on: MCF7 breast
NCI-H522 lung = tested on: NCI-H522 lung
M14 melanoma = tested on: M14 melanoma
SF-539 CNS = tested on: SF-539 CNS
MALME-3M melanoma = tested on: MALME-3M melanoma
SR leukemia = tested on: SR leukemia
OVCAR-8 ovarian = tested on: OVCAR-8 ovarian
DU-145 prostate = tested on: DU-145 prostate
NCI-H23 lung = tested on: NCI-H23 lung
OVCAR-4 ovarian = tested on: OVCAR-4 ovarian
UACC-257 melanoma = tested on: UACC-257 melanoma
COLO 205 colon = tested on: COLO 205 colon
HL-60(TB) leukemia = tested on: HL-60(TB) leukemia
OVCAR-5 ovarian = tested on: OVCAR-5 ovarian
A498 renal = tested on: A498 renal
LOX IMVI melanoma = tested on: LOX IMVI melanoma
HCC-2998 colon = tested on: HCC-2998 colon
NCI-H460 lung = tested on: NCI-H460 lung
MDA-MB-231 breast = tested on: MDA-MB-231 breast
HCT-15 colon = tested on: HCT-15 colon
HT29 colon = tested on: HT29 colon
SF-295 CNS = tested on: SF-295 CNS
HS 578T breast = tested on: HS 578T breast
SF-268 CNS = tested on: SF-268 CNS
UO-31 renal = tested on: UO-31 renal
SNB-19 CNS = tested on: SNB-19 CNS
HOP-62 NSCLC = tested on: HOP-62 NSCLC
MDA-MB-435 = tested on: MDA-MB-435
RXF 393 renal = tested on: RXF 393 renal
NCI-H226 lung = tested on: NCI-H226 lung
HOP-92 NSCLC = tested on: HOP-92 NSCLC
BT-549 breast = tested on: BT-549 breast
SK-MEL-5 melanoma = tested on: SK-MEL-5 melanoma
IGROV1 ovarian = tested on: IGROV1 ovarian
KM12 colon = tested on: KM12 colon
EKVX NSCLC = tested on: EKVX NSCLC
K-562 leukemia = tested on: K-562 leukemia
SK-MEL-2 melanoma = tested on: SK-MEL-2 melanoma
U251 CNS = tested on: U251 CNS
HCT-116 colon = tested on: HCT-116 colon

`O=C(NNc1nc2cc(F)ccc2n2c(CN3CCCC3)ccc12)c1cnccn1` showed a GI50 (PC-3 prostate) of 2.17 µM, a TGI (PC-3 prostate) of 19.8 µM and a GI50 (CAKI-1 renal) of 1.61 µM. The TGI (CAKI-1 renal) was 18.1 µM, the GI50 (SN12C renal) was 2.16 µM and the TGI (SN12C renal) was > 100 µM. The GI50 (NCI/ADR-RES ovarian) was 0.569 µM, the TGI (NCI/ADR-RES ovarian) was 6.32 µM and the GI50 (SW-620 colon) was 1.93 µM. It also gave a TGI (SW-620 colon) of 16.7 µM, a GI50 (RPMI-8226 leukemia) of 0.955 µM and a TGI (RPMI-8226 leukemia) of 49.2 µM. It also gave a GI50 (UACC-62 melanoma) of 2.62 µM, a TGI (UACC-62 melanoma) of 8.34 µM and a GI50 (CCRF-CEM leukemia) of 0.521 µM. The TGI (CCRF-CEM leukemia) was > 100 µM, the GI50 (SNB-75 CNS) was 3.72 µM and the TGI (SNB-75 CNS) was 30.9 µM. It also gave a GI50 (TK-10 renal) of 1.6 µM, a TGI (TK-10 renal) of 9.84 µM and a GI50 (A549 NSCLC) of 1.38 µM. For the same compound, the TGI (A549 NSCLC) was 12.2 µM, the GI50 (SK-MEL-28 melanoma) was 3.4 µM and the TGI (SK-MEL-28 melanoma) was 21.4 µM. The GI50 (MOLT-4 leukemia) was 0.773 µM, the TGI (MOLT-4 leukemia) was > 100 µM and the GI50 (T-47D breast) was 2.39 µM. It also gave a TGI (T-47D breast) of 48.2 µM, a GI50 (SK-OV-3 ovarian) of 1.67 µM and a TGI (SK-OV-3 ovarian) of 12.8 µM. The GI50 (786-0 renal) was 2.07 µM, the TGI (786-0 renal) was 11.3 µM and the GI50 (ACHN renal) was 0.899 µM. The TGI (ACHN renal) was > 100 µM, the GI50 (MCF7 breast) was 0.932 µM and the TGI (MCF7 breast) was 8.1 µM. The GI50 (NCI-H522 lung) was 2.12 µM, the TGI (NCI-H522 lung) was 5.55 µM and the GI50 (M14 melanoma) was 1.61 µM. The TGI (M14 melanoma) was 12.1 µM, the GI50 (SF-539 CNS) was 1.49 µM and the TGI (SF-539 CNS) was 10.4 µM. It also gave a GI50 (MALME-3M melanoma) of 2.81 µM, a TGI (MALME-3M melanoma) of 54.2 µM and a GI50 (SR leukemia) of 0.416 µM. For the same compound, the TGI (SR leukemia) was > 100 µM, the GI50 (OVCAR-8 ovarian) was 1 µM and the TGI (OVCAR-8 ovarian) was 10.6 µM. The GI50 (DU-145 prostate) was 1.49 µM, the TGI (DU-145 prostate) was 13 µM and the GI50 (NCI-H23 lung) was 2.45 µM. For the same compound, the TGI (NCI-H23 lung) was 18.5 µM, the GI50 (OVCAR-4 ovarian) was 2.05 µM and the TGI (OVCAR-4 ovarian) was 55.8 µM. The GI50 (UACC-257 melanoma) was 2.14 µM, the TGI (UACC-257 melanoma) was 6.87 µM and the GI50 (COLO 205 colon) was 1.62 µM. For the same compound, the TGI (COLO 205 colon) was 15.1 µM, the GI50 (HL-60(TB) leukemia) was 1.43 µM and the TGI (HL-60(TB) leukemia) was 4.84 µM. It also gave a GI50 (OVCAR-5 ovarian) of 1.31 µM, a TGI (OVCAR-5 ovarian) of 16.1 µM and a GI50 (A498 renal) of 1.31 µM. For the same compound, the TGI (A498 renal) was 4.99 µM, the GI50 (LOX IMVI melanoma) was 0.893 µM and the TGI (LOX IMVI melanoma) was 11 µM. For the same compound, the GI50 (HCC-2998 colon) was 3.51 µM, the TGI (HCC-2998 colon) was 27.8 µM and the GI50 (NCI-H460 lung) was 0.568 µM. It also gave a TGI (NCI-H460 lung) of 5.43 µM, a GI50 (MDA-MB-231 breast) of 2.3 µM and a TGI (MDA-MB-231 breast) of 20.2 µM. For the same compound, the GI50 (HCT-15 colon) was 0.324 µM, the TGI (HCT-15 colon) was 21.7 µM and the GI50 (HT29 colon) was 0.599 µM. The TGI (HT29 colon) was 14.1 µM, the GI50 (SF-295 CNS) was 0.627 µM and the TGI (SF-295 CNS) was 15.8 µM. For the same compound, the GI50 (HS 578T breast) was 4.55 µM, the TGI (HS 578T breast) was > 100 µM and the GI50 (SF-268 CNS) was 1.38 µM. For the same compound, the TGI (SF-268 CNS) was 33.9 µM, the GI50 (UO-31 renal) was 0.375 µM and the TGI (UO-31 renal) was 9.57 µM. The GI50 (SNB-19 CNS) was 2.39 µM, the TGI (SNB-19 CNS) was 24.6 µM and the GI50 (HOP-62 NSCLC) was 0.613 µM. The TGI (HOP-62 NSCLC) was 6.3 µM, the GI50 (MDA-MB-435) was 3.95 µM and the TGI (MDA-MB-435) was > 100 µM. For the same compound, the GI50 (RXF 393 renal) was 1.62 µM, the TGI (RXF 393 renal) was 7.56 µM and the GI50 (NCI-H226 lung) was 3.33 µM. For the same compound, the TGI (NCI-H226 lung) was 23.1 µM, the GI50 (HOP-92 NSCLC) was 2.6 µM and the TGI (HOP-92 NSCLC) was 28.9 µM. The GI50 (BT-549 breast) was 3.26 µM, the TGI (BT-549 breast) was 26 µM and the GI50 (SK-MEL-5 melanoma) was 2.81 µM. It also gave a TGI (SK-MEL-5 melanoma) of 8.1 µM, a GI50 (IGROV1 ovarian) of 0.747 µM and a TGI (IGROV1 ovarian) of 11.5 µM. For the same compound, the GI50 (KM12 colon) was 1.19 µM, the TGI (KM12 colon) was 16.5 µM and the GI50 (EKVX NSCLC) was 1.01 µM. For the same compound, the TGI (EKVX NSCLC) was 16.2 µM, the GI50 (K-562 leukemia) was 0.599 µM and the TGI (K-562 leukemia) was > 100 µM. It also gave a GI50 (SK-MEL-2 melanoma) of 2.48 µM, a TGI (SK-MEL-2 melanoma) of 10.8 µM and a GI50 (U251 CNS) of 1.19 µM. The TGI (U251 CNS) was 14.6 µM, the GI50 (HCT-116 colon) was 0.725 µM and the TGI (HCT-116 colon) was 12.4 µM.
